In patent publication US20040254173A1, “Modulation of dopamine responses with substituted (S)-2,3-benzodiazepines” (priority 2003, published 2004):

System: apomorphine-induced hypothermia, stereotypies and climbing
Test: Low Dose Apomorphine Test in the mouse
Format: in vivo
Settings: for STEREOTYPY (intensity score), 20 min after apomorphine, mean ± s.e.m. / STEREOTYPY (intensity score), 50 min after apomorphine, mean ± s.e.m.: 4 point scale (0-3); for CLIMBING (No. of mice), 20 minutes after apomorphine / CLIMBING (No. of mice), 50 minutes after apomorphine: 6 mice per group; for Rectal Temperature, 30 min after apomorphine, mean ± s.e.m. / Rectal Temperature, 60 min after apomorphine, mean ± s.e.m. / Rectal Temperature, before apomorphine, mean ± s.e.m. / effect on apomorphine-induced hypothermia: mouse; for Rectal Temperature, 30 min after apomorphine, mean change from control / Rectal Temperature, 60 min after apomorphine, mean change from control / STEREOTYPY (intensity score), 20 min after apomorphine, mean change from control / STEREOTYPY (intensity score), 50 min after apomorphine, mean change from control: vs vehicle
Source text: Racemic tofisopam, (R)-tofisopam and (S)-tofisopam were investigated in the Low Dose Apomorphine Test in the mouse to evaluate their pro- or anti-dopaminergic activity following intraperitoneal (i.p.) administration of apomorphine. Apomorphine, at a low dose, induces hypothermia, stereotypies and climbing. All three of these symptoms are potentiated by dopaminergic agonists and antagonized by dopamine antagonists, such as classical neuroleptics. The Low Dose Apomorphine Test, thus serves to detect pro- or antidopaminergic activity. The test was performed according to the protocols described by Chermat and Poncelet. See, Chermat R., Poncelet M., “Antagonisme des redressements, des stéréotypies et de l'hypotheimie induits par 1 ou 16 mg.kg-1 d'apomorphine,” J. Pharmacol., 14, 93-97, 1983.
Male mice of Rj: NMRI strain, 23-26 g body weight range were supplied by Elevage Janvier, 53940 Le Genest-Saint-Isle, France. The animals were delivered to the laboratory at least 3 days before the experiment and, upon arrival, were housed 10 per cage in macrolon cages (25×19×13 cm) containing wood shavings (Litalabo-SPPS, 95100 Argenteuil, France) with free access to food (UAR 113-UAR, 91360 Epinay-sur-Orge, France) and tap water (i.e. non-fasted) until tested. The animal house was maintained under artificial lighting (12 hours) between 7.00 and 19.00 in a controlled ambient temperature of 21±1° C., and relative humidity maintained at 40-70%.
The different treatments were equally distributed between the animals. During the experiment, each animal within a cage received the same treatment. Animals within a cage were individually marked on the tail with an indelible pen.
The experiment was conducted blind with treatment vials labeled A, B, C etc., according to a standardized coding procedure. The evaluation of the different treatments was balanced over time by testing successive series of individual animals from each treatment group in a fixed rotation (A, B, C, etc.). Animals were sacrificed at the end of the experiment by exposure to CO2.
Three compounds, racemic tofisopam, (R)-tofisopam and (S)-tofisopam were tested in the Low Dose Apomorphine Test. Each of these three compounds was dosed as a dispersion in 0.2% hydroxypropylmethylcellulose (HPMC) (Sigma), in sterile physiological saline (Laboratoire Aguettant).
Two reference standards were also dosed. Bromocriptine, methanesulfonate (Sigma), a known dopamine agonist, and haloperidol (Sigma), a known dopamine antagonist, were dispersed in 0.2% HPMC in sterile physiological saline.
Apomorphine hydrochloride, the dopamine mimetic employed in the assay, was dissolved in water for injectable preparation (Laboratoire Aguettant). Dosing: All of the dosed substances were administered in a volume of 10 ml/kg. The doses are expressed in mg/kg of supplied substance.
6 mice were studied per group. The test was performed blind.
Racemic tofisopam, (R)-tofisopam and (S)-tofisopam were administered at doses of 16, 32 and 64 mg/kg, administered intraperitonealy (i.p.), 30 minutes prior to administration of apomorphine.
The rectal temperature of the mice was measured prior to apomorphine dosing using a rectal probe (Physitemp Instruments Digital Laboratory Thermometer Model BAT-12). The mice were then placed in individual Plexiglas cages (10×6×4 cm) attached with the opening against a vertical wire grid.
The mice were then injected subcutaneously (s.c.) with apomorphine (1 mg/kg). Rectal temperature was measured 30 and 60 minutes after the injection of apomorphine.
The intensity of stereotypies (sniffing, licking, gnawing), were scored at 20 minutes and 50 minutes after injection of apomorphine on a 4 point scale (0-3). The presence (1) or absence (0) of climbing against the wire grid wall, were also assessed 20 and 50 minutes after injection of apomorphine.
The reference standards bromocriptine (16 mg/kg) and haloperidol (0.5 mg/kg), were administered under the same experimental conditions.

[1] = 16 mg/kg i.p. 30 min before apomorphine 1 mg/kg s.c.
[2] = 16 mg/kg i.p., 30 min after test substance
[3] = 0.5 mg/kg, before apomorphine 1 mg/kg s.c.
[4] = 32 mg/kg i.p. 30 min before apomorphine 1 mg/kg s.c.
[5] = 32 mg/kg i.p., 30 min after test substance
[6] = 64 mg/kg i.p. 30 min before apomorphine 1 mg/kg s.c.
[7] = 64 mg/kg i.p., 30 min after test substance

Compound	STEREOTYPY (intensity score), 20 min after apomorphine, mean ± s.e.m. [1]	STEREOTYPY (intensity score), 50 min after apomorphine, mean ± s.e.m. [1]	CLIMBING (No. of mice), 20 minutes after apomorphine [1]	CLIMBING (No. of mice), 50 minutes after apomorphine [1]	Rectal Temperature, 30 min after apomorphine, mean ± s.e.m. [1]	Rectal Temperature, 60 min after apomorphine, mean ± s.e.m. [1]	Rectal Temperature, 30 min after apomorphine, mean change from control [1]	Rectal Temperature, 60 min after apomorphine, mean change from control [1]	STEREOTYPY (intensity score), 20 min after apomorphine, mean change from control [1]	STEREOTYPY (intensity score), 50 min after apomorphine, mean change from control [1]	Rectal Temperature, before apomorphine, mean ± s.e.m. [2]	STEREOTYPY (intensity score), 20 min after apomorphine, mean ± s.e.m. [4]	STEREOTYPY (intensity score), 50 min after apomorphine, mean ± s.e.m. [4]	CLIMBING (No. of mice), 20 minutes after apomorphine [4]	CLIMBING (No. of mice), 50 minutes after apomorphine [4]	Rectal Temperature, 30 min after apomorphine, mean ± s.e.m. [4]	Rectal Temperature, 60 min after apomorphine, mean ± s.e.m. [4]	Rectal Temperature, 30 min after apomorphine, mean change from control [4]	Rectal Temperature, 60 min after apomorphine, mean change from control [4]	STEREOTYPY (intensity score), 20 min after apomorphine, mean change from control [4]	further results
Bromocriptine, methanesulfonate	2.7 ± 0.2	1.0 ± 0.4	6 No. of mice	2 No. of mice	34.4 ± 0.4 °C	35.0 ± 0.5 °C	−0.7 °C	−1.7 °C	+0.5	0.0	37.2 ± 0.2 °C	–	–	–	–	–	–	–	–	–	effect on apomorphine-induced stereotypies or climbing (16 mg/kg): did not significantly affect; effect on apomorphine-induced hypothermia (16 mg/kg): significantly potentiated
O=C(CCCN1CCC(O)(c2ccc(Cl)cc2)CC1)c1ccc(F)cc1 [Haloperidol, haloperidol]	–	–	–	–	–	–	–	–	–	–	–	–	–	–	–	–	–	–	–	–	effect on apomorphine-induced stereotypies and climbing as well as hypothermia (0.5 mg/kg): significantly antagonized; STEREOTYPY (intensity score), 20 min after apomorphine, mean ± s.e.m. [3]: 0.0 ± 0.0; STEREOTYPY (intensity score), 50 min after apomorphine, mean ± s.e.m. [3]: 0.0 ± 0.0; CLIMBING (No. of mice), 20 minutes after apomorphine [3]: 0+ No. of mice; CLIMBING (No. of mice), 50 minutes after apomorphine [3]: 1 No. of mice; Rectal Temperature, 30 min after apomorphine, mean ± s.e.m. [3]: 37.0 ± 0.1 °C; Rectal Temperature, 60 min after apomorphine, mean ± s.e.m. [3]: 37.7 ± 0.1 °C; Rectal Temperature, 30 min after apomorphine, mean change from control [3]: +1.9 °C; Rectal Temperature, 60 min after apomorphine, mean change from control [3]: +1.0 °C; STEREOTYPY (intensity score), 20 min after apomorphine, mean change from control [3]: −2.2; STEREOTYPY (intensity score), 50 min after apomorphine, mean change from control [3]: −1.0; Rectal Temperature, before apomorphine, mean ± s.e.m. (0.5 mg/kg): 37.3 ± 0.1 °C; effect on apomorphine-induced hypothermia (0.5 mg/kg): significantly antagonized
CC[C@@H]1C(C)=NN=C(c2ccc(OC)c(OC)c2)c2cc(OC)c(OC)cc21 [(S)-tofisopam, (S)-1-(3,4-dimethoxyphenyl)-4-methyl-5-ethyl-7,8-dimethoxy-5H-2,3-benzodiazepine]	3.0 ± 0.0	0.7 ± 0.2	6 No. of mice	3 No. of mice	34.8 ± 0.4 °C	37.2 ± 0.2 °C	−0.3 °C	+0.5 °C	+0.8	−0.3	37.2 ± 0.3 °C	2.3 ± 0.3	0.3 ± 0.2	6 No. of mice	2 No. of mice	34.4 ± 0.3 °C	36.6 ± 0.2 °C	−0.7 °C	−0.1 °C	+0.1	behaviour on apomorphine-induced hypothermia (rectal temperature) (16 mg/kg, sixty minutes after apomorphine, slight but statistically significant elevation in temperature): weak dopamine antagonist; behaviour on apomorphine-induced stereotypies (16 mg/kg, twenty minute time point): strong dopamine agonist; STEREOTYPY (intensity score), 50 min after apomorphine, mean change from control [4]: −0.7; Rectal Temperature, before apomorphine, mean ± s.e.m. [5]: 37.0 ± 0.2 °C; STEREOTYPY (intensity score), 20 min after apomorphine, mean ± s.e.m. [6]: 0.2 ± 0.2; STEREOTYPY (intensity score), 50 min after apomorphine, mean ± s.e.m. [6]: 0.2 ± 0.2; CLIMBING (No. of mice), 20 minutes after apomorphine [6]: 0+ No. of mice; CLIMBING (No. of mice), 50 minutes after apomorphine [6]: 0 No. of mice; Rectal Temperature, 30 min after apomorphine, mean ± s.e.m. [6]: 33.6 ± 0.7 °C; Rectal Temperature, 60 min after apomorphine, mean ± s.e.m. [6]: 33.3 ± 1.0 °C; Rectal Temperature, 30 min after apomorphine, mean change from control [6]: −1.5 °C; Rectal Temperature, 60 min after apomorphine, mean change from control [6]: −3.4 °C; STEREOTYPY (intensity score), 20 min after apomorphine, mean change from control [6]: −2.0; STEREOTYPY (intensity score), 50 min after apomorphine, mean change from control [6]: −0.8; Rectal Temperature, before apomorphine, mean ± s.e.m. [7]: 37.2 ± 0.2 °C; behaviour on apomorphine-induced stereotypies and climbing (64 mg/kg, twenty and fifty minute time points): strong dopamine antagonist; behaviour on apomorphine-induced hypothermia (rectal temperature) (higher doses (32, 64 mg/kg), thirty and sixty minute time points, lowering the rectal temperature): dopamine antagonism
CC[C@H]1C(C)=NN=C(c2ccc(OC)c(OC)c2)c2cc(OC)c(OC)cc21 [(R)-tofisopam, (R)-1-(3,4-dimethoxyphenyl)-4-methyl-5-ethyl-7,8-dimethoxy-5H-2,3-benzodiazepine]	2.8 ± 0.2	1.0 ± 0.3	6 No. of mice	5 No. of mice	35.1 ± 0.3 °C	36.9 ± 0.2 °C	0.0 °C	+0.2 °C	+0.6	0.0	37.3 ± 0.1 °C	2.2 ± 0.2	1.0 ± 0.3	6 No. of mice	4 No. of mice	34.6 ± 0.4 °C	36.6 ± 0.2 °C	−0.5 °C	−0.1 °C	0.0	STEREOTYPY (intensity score), 50 min after apomorphine, mean change from control [4]: 0.0; Rectal Temperature, before apomorphine, mean ± s.e.m. [5]: 37.1 ± 0.1 °C; STEREOTYPY (intensity score), 20 min after apomorphine, mean ± s.e.m. [6]: 1.5 ± 0.6; STEREOTYPY (intensity score), 50 min after apomorphine, mean ± s.e.m. [6]: 1.2 ± 0.3; CLIMBING (No. of mice), 20 minutes after apomorphine [6]: 3 No. of mice; CLIMBING (No. of mice), 50 minutes after apomorphine [6]: 2 No. of mice; Rectal Temperature, 30 min after apomorphine, mean ± s.e.m. [6]: 35.1 ± 0.4 °C; Rectal Temperature, 60 min after apomorphine, mean ± s.e.m. [6]: 36.5 ± 0.4 °C; Rectal Temperature, 30 min after apomorphine, mean change from control [6]: 0.0 °C; Rectal Temperature, 60 min after apomorphine, mean change from control [6]: −0.2 °C; STEREOTYPY (intensity score), 20 min after apomorphine, mean change from control [6]: −0.7; STEREOTYPY (intensity score), 50 min after apomorphine, mean change from control [6]: +0.2; Rectal Temperature, before apomorphine, mean ± s.e.m. [7]: 37.2 ± 0.1 °C; effect on apomorphine-induced hypothermia (16, 32 and 64 mg/kg i.p.): did not affect; effect on apomorphine-induced hypothermia, stereotypies or climbing (dose-range tested (16, 32, 64 mg/kg i.p.)): did not affect
